Assay results taken from US20260242438A1 (INSTITUTE OF MATERIA MEDICA, CHINESE ACADEMY OF MEDICAL …, priority 2022, published 2026).
*1 amine or outer side, *2 acyl side, *3 side chain or, on linkers, in order; H or OH if unused. Where a SMILES comes first, the peptide text is derived from it. Bridges are numbered along the chain shown (N, C = ends). The star is where a group is joined. pNA = O=[N+]([O-])c1ccc(N*)cc1; Suc = O=C(CCC(=O)[*:2])[*:1]

Legend:
[1] = molecular target: T1, chymotrypsin (Bos taurus, UniProt P00766); assay: Determination of the Michaelis constant Km of chymotrypsin hydrolyzing AAPFpNA; format: biochemical; settings: R^2=0.9988, pH 7.8, 37° C.
Procedure: (1) Added a total 198 μL of reaction buffer (20 mM CaCl2, 50 mM Tris-HCl (pH 7.8)) into the 96 well plate, followed by preheating at 37° C. for 15 min. Then added 2 μL of different concentrations of substrates (p-Nitroanilide, pNA, 0.5% in DMSO), and mixed by centrifugation at 500 rpm for 1 min. Finally, the plate was incubated at 37° C. for 20 min, and the absorbance value at 405 nm was measured. In the 200 μL of reaction system, the final concentrations of pNA were 0, 0.025, 0.05, 0.075, 0.1, 0.125, 0.15, 0.25, and 0.3 mM, respectively. Make three repetitions for each concentration and plot the OD 405 nm value with pNA concentration to obtain the standard curve. (2) Added a total 190 μL of reaction buffer (20 mM CaCl2, 50 mM Tris-HCl (pH 7.8)) and 8 μL of 0.75 μM chymotrypsin into the 96 well plate, followed by preheating at 37° C. for 5 min. Then added 2 μL of different concentrations of substrates (AAPFpNA, dissolved in DMSO), and mixed by centrifugation at 500 rpm for 1 min. Finally, the plate was incubated at 37° C. for 20 min, and the absorbance value at 405 nm was measured. In the 200 μL of reaction system, the final concentrations of AAPFpNA were 0, 0.125, 0.25, 0.285, 0.33, 0.4, and 0.5 mM, respectively. […]
Using a certain concentration of chymotrypsin to catalyze different concentrations of AAPFpNA to produce pNA, and the absorbance value of OD 405 nm was measured.

[2] = molecular target: T1, chymotrypsin; assay: Determination of enzyme inhibitory activity against chymotrypsin (substrate AAPFpNA, OD 405 nm); format: biochemical; settings: for IC50: chymotrypsin 30 nM, AAPFpNA 0.5 mM, pH 7.8, 37° C.; for remaining activity at 0.001 µM: peptide 0.001 μM; for remaining activity at 0.1 µM: peptide 0.1 μM; for remaining activity at 0.5 µM: peptide 0.5 μM; for remaining activity at 1 µM: peptide 1 μM; for remaining activity at 10 µM: peptide 10 μM; for remaining activity at 100 µM: peptide 100 μM; for remaining activity at 0.01 µM: peptide 0.01 μM; for remaining activity at 0.2 µM: peptide 0.2 μM
Procedure: The substrates N-succinyl-Ala-Ala-Pro-Phe-p-nitroaniline (AAPFpNA) is used in competitive binding reaction to determine the inhibitory activities against α -chymotrypsin. Experiments for a-chymotrypsin was measured in 20 mM CaCl2, 50 mM Tris-HCl buffer (pH 7.8). The concentration of the peptide was measured using optical density (OD) at 280 nm. The Michaelis constant (Km) of the enzyme hydrolysis substrate is calculated from the initial rate of substrate hydrolysis at 405 nm. The absorbance value of the substrate was measured at 405 nm after complete hydrolysis. All data were processed using nonlinear regression.
(1) Added a total 190 μL of reaction buffer (20 mM CaCl2, 50 mM Tris-HCl (pH 7.8)), different concentrations of anti-chymorypsin peptides (CHs) into the pre-cold 96 well plate, followed by preheating at 37° C. for 5 min and centrifugated at 500 rpm for 1 min and allowed to stand for 4 minutes. Then added 8 μL of 750 nM chymotrypsin and incubated at 37° C. for 10 min, and centrifugated at 500 rpm for 1 min and allowed to stand for 9 minutes. Finally, added 2 μL of 50 mM AAPFpNA, and mixed by centrifugation at 500 rpm for 1 min. The plate was incubated at 37° C. for 90 min, and the absorbance value at 405 nm was measured. Three repetitions were made, and only reaction buffer and substrate were added in the blank control as the minimum absorption value (Min OD 405 nm); Only reaction buffer, enzyme and substrate were added in the negative control as the maximum absorption value (Max OD 405 nm).
(2) In the 200 μL of reaction system, the final concentrations of chymotrypsin and AAPFpNA were 30 nM and 0.5 mM, respectively.
Plotted the residual activity of enzyme with […] to obtain the half inhibitory concentration (IC50) of anti-chymorypsin peptides (CHs). Then, substituted it into the formula […]/(1+S/Km) (S, IC50, and Km were substrate concentration, half inhibitory concentration, and Michaelis constant, respectively) to obtain the inhibition constant Ki of anti-chymorypsin peptides (CHs).

[3] = tested on: Normal ICR mice; assay: In vivo hypoglycemic activity, subcutaneous administration; settings: for Glucose (mean ± sd): subcutaneous, 0.9 mg/kg
Procedure: Tail tip blood samples were collected at 40 min and 90 min after administration, and blood glucose levels were measured using glucose oxidase method to calculate blood glucose values at each blood sampling time point.

[4] = read-out: Residual activity of chymotrypsin

Compound	Ki [2]	IC50 [2]	remaining activity at 0.001 µM [2, 4]	remaining activity at 0.1 µM [2, 4]	remaining activity at 0.5 µM [2, 4]	remaining activity at 1 µM [2, 4]	remaining activity at 10 µM [2, 4]	remaining activity at 100 µM [2, 4]	remaining activity at 0.01 µM [2, 4]	remaining activity at 0.2 µM [2, 4]	other results
C[C@H](NC(=O)CCC(=O)O)C(=O)N[C@@H](C)C(=O)N1CCC[C@H]1C(=O)N[C@@H](Cc1ccccc1)C(=O)Nc1ccc([N+](=O)[O-])cc1 [AAPFpNA, N-succinyl-Ala-Ala-Pro-Phe-p-nitroaniline] (Suc-AAPF-pNA)	–	–	–	–	–	–	–	–	–	–	Km [1]: 380 µM
CC[C@H](C)[C@@H]1NC(=O)[C@@H]2CCCN2C(=O)[C@@H]2CCCN2C(=O)[C@H]([C@@H](C)CC)NC(=O)[C@H](CO)NC(=O)[C@H](Cc2ccc(O)cc2)NC(=O)[C@H]([C@@H](C)O)NC(=O)[C@H](C)NC(=O)[C@H](CCCNC(=N)N)NC(=O)CNC(=O)[C@@H](N)CSSC[C@@H](C(=O)N[C@@H](Cc2ccccc2)C(=O)N2CCC[C@H]2C(=O)N[C@@H](CC(=O)O)C(=O)O)NC1=O [CH65] (H-CGRATYSIPPICFPD-OH; disulfide 1-12; C-terminus assumed)	210 nM	480 nM	99.8 ± 2%	97.8 ± 4.4%	48.2 ± 3.6%	8.9 ± 1.4%	4.1 ± 2.3%	0.1 ± 0.1%	–	–	remaining activity at 0.25 µM ([2]; peptide 0.25 μM, read-out: Residual activity of chymotrypsin): 89.5 ± 2.9%; remaining activity at 0.75 µM ([2]; peptide 0.75 μM, read-out: Residual activity of chymotrypsin): 11.7 ± 1.4%; remaining activity at 1000 µM ([2]; peptide 1000 μM, read-out: Residual activity of chymotrypsin): 0.2%
CC[C@H](C)[C@@H]1NC(=O)[C@@H]2CCCN2C(=O)[C@@H]2CCCN2C(=O)[C@H]([C@@H](C)CC)NC(=O)[C@H](CO)NC(=O)[C@H](Cc2ccc(O)cc2)NC(=O)[C@H]([C@@H](C)O)NC(=O)[C@H](C)NC(=O)[C@H](CCCNC(=N)N)NC(=O)CNC(=O)[C@@H](N)CSSC[C@@H](C(=O)N[C@@H](Cc2ccccc2)C(=O)N2CCC[C@H]2C(=O)O)NC1=O [CH66] (H-CGRATYSIPPICFP-OH; disulfide 1-12; C-terminus assumed)	280 nM	650 nM	–	–	–	–	–	–	–	–	–
CC[C@H](C)[C@@H]1NC(=O)[C@@H]2CCCN2C(=O)[C@@H]2CCCN2C(=O)[C@H]([C@@H](C)CC)NC(=O)[C@H](CO)NC(=O)[C@H](Cc2ccc(O)cc2)NC(=O)[C@H]([C@@H](C)O)NC(=O)[C@H](C)NC(=O)[C@H](CCCNC(=N)N)NC(=O)CNC(=O)[C@@H](N)CSSC[C@@H](C(=O)N[C@@H](Cc2ccccc2)C(=O)O)NC1=O [CH67] (H-CGRATYSIPPICF-OH; disulfide 1-12; C-terminus assumed)	860 nM	2000 nM	–	–	–	–	–	–	–	–	–
CC[C@H](C)[C@@H]1NC(=O)[C@@H]2CCCN2C(=O)[C@@H]2CCCN2C(=O)[C@H]([C@@H](C)CC)NC(=O)[C@H](CO)NC(=O)[C@H](Cc2ccc(O)cc2)NC(=O)[C@H]([C@@H](C)O)NC(=O)[C@H](C)NC(=O)[C@H](CCCNC(=N)N)NC(=O)[C@H](CCCCN)NC(=O)[C@@H](N)CSSC[C@@H](C(=O)N[C@@H](Cc2ccccc2)C(=O)O)NC1=O [CH69] (H-CKRATYSIPPICF-OH; disulfide 1-12; C-terminus assumed)	130 nM	300 nM	101.7 ± 0.3%	100 ± 2.5%	20.1 ± 6.1%	12.1 ± 1.1%	1.3 ± 0.6%	0%	101 ± 0.2%	78 ± 4%	remaining activity at 0.3 µM ([2]; peptide 0.3 μM, read-out: Residual activity of chymotrypsin): 51.5 ± 5.8%
CC[C@H](C)[C@@H]1NC(=O)[C@@H]2CCCN2C(=O)[C@@H]2CCCN2C(=O)[C@H]([C@@H](C)CC)NC(=O)[C@H](CO)NC(=O)[C@H](Cc2ccc(O)cc2)NC(=O)[C@H]([C@@H](C)O)NC(=O)[C@H](C)NC(=O)[C@H](CCCNC(=N)N)NC(=O)[C@H](CCC(=O)O)NC(=O)[C@@H](N)CSSC[C@@H](C(=O)N[C@@H](Cc2ccccc2)C(=O)O)NC1=O [CH70] (H-CERATYSIPPICF-OH; disulfide 1-12; C-terminus assumed)	110 nM	250 nM	100 ± 7.6%	105.8 ± 0.9%	26 ± 2.5%	7.7 ± 0.2%	0.7 ± 0.3%	-0.1 ± 0.1%	106 ± 1.8%	55 ± 7.2%	remaining activity at 0.15 µM ([2]; peptide 0.15 μM, read-out: Residual activity of chymotrypsin): 96.5 ± 8.5%
CC[C@H](C)[C@@H]1NC(=O)[C@@H]2CCCN2C(=O)[C@@H]2CCCN2C(=O)[C@H]([C@@H](C)CC)NC(=O)[C@H](CO)NC(=O)[C@H](Cc2ccccc2)NC(=O)[C@H]([C@@H](C)O)NC(=O)[C@H](C)NC(=O)[C@H](CCCNC(=N)N)NC(=O)CNC(=O)[C@@H](N)CSSC[C@@H](C(=O)N[C@@H](Cc2ccccc2)C(=O)O)NC1=O [CH71] (H-CGRATFSIPPICF-OH; disulfide 1-12; C-terminus assumed)	180 nM	410 nM	101.4 ± 0.6%	100.3 ± 0.5%	–	20.7 ± 1.3%	0.8 ± 0.2%	0.1 ± 0.1%	100.6 ± 1%	81.7 ± 3.3%	remaining activity at 0.4 µM ([2]; peptide 0.4 μM, read-out: Residual activity of chymotrypsin): 49.9 ± 6.6%; remaining activity at 0.8 µM ([2]; peptide 0.8 μM, read-out: Residual activity of chymotrypsin): 23.6 ± 1.5%
lispro: insulin analogue lispro synthesized in the present invention	–	–	–	–	–	–	–	–	–	–	hypoglycemic activity (in words) ([3]; subcutaneous administration, compared with a positive control): good hypoglycemic activity; Glucose (mean ± sd) ([3]; 0 min): 96.7 ± 24.8 mg/dL; Glucose (mean ± sd) ([3]; 40 min): 70.3 ± 6.2 mg/dL; Glucose (mean ± sd) ([3]; 90 min): 72.9 ± 15.6 mg/dL
